Results published in PMC11320730, “5-Methoxy-2-aminoindane Reverses Diet-Induced Obesity and Improves Metabolic Parameters in Mice: A Potential New Class of Antiobesity Therapeutics” (ACS Pharmacology & Translational Science, 2024).

Experiments:
DIO C57BL/6 mice = experiment: Glucose tolerance test (ipGTT) and insulin tolerance test (ipITT) in DIO mice; format: in vivo; settings: 40 mg/kg/day
Experimental: (§1) Male C57BL/6 mice were used to establish DIO by feeding them a high-fat diet (HFD; 60% cal/L fat, 20% cal/L protein, and 20% cal/L carbohydrates; Research Diet, D12492) for 18 weeks. After this period, mice were treated with either vehicle (sterile water, N = 8) or MEAI (N = 11) daily for 28 days by gavage at a dose of 40 mg/kg/day. Age-matched control mice (N = 10) on a standard diet (STD; 14% kcal fat, 24% kcal protein, 62% kcal carbohydrates; NIH-31 rodent diet) received vehicle daily. The body weight of all mice was monitored daily, and total body fat and lean mass were determined by EchoMRI-100H (Echo Medical Systems LLC, Houston, Texas, USA). On day 29, at the end of the experimental period, mice were euthanized by a cervical dislocation under anesthesia. The kidneys, brain, liver, and fat pads were removed and weighed, and samples were either snap-frozen or fixed in buffered 4% formalin. Trunk blood was collected to determine the biochemical parameters.
On day 25 of the experiment, mice were subjected to an overnight fasting and then injected with glucose (1.5 g/kg i.p.) on the following day (day 26). Blood glucose levels were determined at 0, 15, 30, 45, 60, 90, and 120 min after injection using the Contour glucometer (Bayer, Pittsburgh, Pennsylvania, USA). The mice were then fasted for 6 h the next day (day 27) before being administered insulin (0.75 U/kg, i.p.; Actrapid vials, Novo Nordisk A/S, Bagsværd, Denmark). Blood glucose levels were determined at the same intervals as those described above. To assess insulin resistance, the homeostasis model assessment insulin resistance (HOMA-IR) was calculated as fasting serum insulin ([μU/mL] × fasting plasma glucose [mmol/L]/22.5). The relative insulin sensitivity index (ISI) was calculated as 1/(glucose × insulin) × 1000, with glucose expressed as mg/dL and insulin as mU/L.

MAO-A = system: MAO-A; parameters: method as in PMID 29458138; settings: cited from earlier work
[1] = system: liver of DIO C57BL/6 mice; experiment: Liver weight, hepatic triglyceride and cholesterol contents, histopathology and Oil Red O staining in DIO mice; format: in vivo; settings: 40 mg/kg/day
Experimental: as §1
At the time of animal sacrifice, liver tissue was extracted following the established protocol described previously.[19] The extracted liver tissue was then analyzed for cholesterol and triglyceride contents using a Cobas C-111 chemistry analyzer (Roche, Switzerland).
Paraffin-embedded liver sections (5 μm) from five animals per group were processed for hematoxylin–eosin staining. Liver images were captured using a Zeiss Axio Scope A1 light microscope (Carl Zeiss AG, Jena, Germany) equipped with a Zeiss AxioCam ICc 5 color camera. Ten random 40× fields of view were taken from each animal to obtain representative images.
Liver cryosections (8 μm) were stained with Oil Red O (Cat# ab150678; Abcam, Cambridge, UK) following the manufacturer’s protocol. Images were acquired as described above. For quantitative analysis of Oil Red O staining, the area of lipid droplets in the liver cryosections was measured using ImageJ software.

[2] = system: serotonin transporter (SERT); parameters: method as in PMID 30904940; settings: cited from earlier work
[3] = system: hepatic lipid metabolism regulators; experiment: Western blotting of liver proteins in DIO mice; format: in vivo; settings: 40 mg/kg/day
Experimental: as §1
Liver samples were prepared in a RIPA buffer (25 mM Tris–HCl pH 7.6, 150 mM NaCl, 1% NP-40, 1% sodium deoxycholate, 0.1% SDS), and the homogenates were prepared by using the Bullet Blender and zirconium oxide beads (catalog no. ZROB10, Next Advanced, Inc., New York, USA). Protein concentrations were measured with the Pierce BCA Protein Assay Kit (catalog no. 23225, Thermo Scientific, Illinois, USA). Samples were resolved by SDS-PAGE (4–15% acrylamide, 150 V) and transferred to PVDF or nitrocellulose membranes using the Trans-Blot Turbo Transfer System (Bio-Rad, California). The membranes were then incubated for 1 h in 5% milk (in 1× M TBS-T) to block unspecific binding. The membranes were incubated overnight with cluster of differentiation 36 (CD36; Abcam, Cambridge, UK; Cat# ab252922), stearoyl-CoA desaturase 1 (SCD1; Cell Signaling Technology, Danvers, Massachusetts; Cat# 2794S), fatty acid synthase (FASN; Cell Signaling Technology, Danvers, Massachusetts, USA; Cat# 3180S), 5′-adenosine monophosphate (AMP)-activated protein kinase alpha (AMPKα; Cell Signaling Technology, Danvers, Massachusetts, USA; Cat# 2532S), phosphorylated-AMPKα (Cell Signaling Technology, Danvers, Massachusetts, USA; Cat# 2535S), acetyl-CoA carboxylase (ACC; Cell Signaling Technology, Danvers, Massachusetts, USA; Cat# 3662S), and phosphorylated ACC (Cell Signaling Technology, Danvers, Massachusetts, USA; Cat# 3661S) antibodies at 4 °C. Antirabbit/mouse horseradish peroxidase (HRP)-conjugated secondary antibodies were used for 1 h at room temperature, followed by chemiluminescence detection using Clarity Western ECL Blotting Substrate (Bio-Rad, California). Densitometry was quantified by using ImageJ software. Quantification was normalized to anti-β actin antibody (Abcam, Cambridge, UK; Cat# ab49900) or valosin-containing protein (VCP) (Abcam, Cambridge, UK; Cat# ab204290).

COc1ccc2c(c1)CC(N)C2.Cl (centres unmarked) [MEAI, 2,3-Dihydro-5-methoxy-1H-inden-2-amine hydrochloride]
HOMA-IR score (DIO C57BL/6 mice): improved
ISI score (DIO C57BL/6 mice): improved
fasting blood glucose levels (DIO C57BL/6 mice): reduced
glucose metabolism (glucose and insulin tolerance tests) (DIO C57BL/6 mice; days 26-27): significant improvement
binding inhibition (MAO-A): unaffected
Oil Red O staining of liver ([1]; DIO mice, vs HFD vehicle): decrease
hepatic cholesterol levels ([1]; DIO mice, vs HFD vehicle): trend toward a reduction
lipid vacuole numbers in liver ([1]; DIO mice, vs HFD vehicle): reduced
liver triglycerides ([1]; DIO mice, vs HFD vehicle): significant reductions
liver weight ([1]; HFD-fed mice, 28 days): reduced
liver weight to body weight ratio ([1]; HFD-fed mice, 28 days): normalized
interaction with transporter [2]: interacts
CD36 protein levels [3]: remained unchanged
FASN protein levels [3]: significantly reduced
SCD1 protein levels [3]: significantly reduced
phosphorylated ACC (p-ACC) levels [3]: did not significantly affect
phosphorylated AMPK (p-AMPK) [3]: trend toward increased
